# Test results reported in US8017326B2, “Methods of modulating cell death based on the Bit-1/AES regulatory pathway” (Sanford-Burnham Medical Research Institute, priority 2002, dated 2011).
# Where a SMILES comes first, the peptide text is derived from it. Where no end group is shown, it is not given here. The star is where a group is joined. Cbz = O=C(OCc1ccccc1)*; CH2F = FC*
# Assays:
# [1] = tested on: Bit1-induced apoptosis in HEK 293 cells; assay: Extracellular matrix proteins and Bit1-induced apoptosis, trypan blue staining; assay type: cell-based, human; settings: HEK 293 cells plated onto coated dishes, 10 μg Bit1 plasmid, 48 hours
# Method: Several extracellular matrix proteins were assayed for the ability to modulate Bit1-mediated apoptosis. Cells were plated onto bacterial culture dishes pre-coated overnight with fibronectin (Chemicon; Temecula; CA), vitronectin (SIGMA; St. Louis, Mo.) or type I collagen (SIGMA), and transfected and assayed for apoptosis as described above.
# To analyze integrin involvement in protecting attached cells against the pro-apoptotic effect of Bit1, Bit1 cell lines expressing either α5β1 or αvβ1 as the main fibronectin receptor were compared. The two cell lines attach equally well to fibronectin but, like cytoplasmically truncated α5β1, αvβ1 fails to protect cells against apoptosis induced by serum deprivation (Zhang et al., supra, 1995; and Matter and Ruoslahti, supra, 2001).
# Experiments with extracellular matrix proteins were performed as follows. Cells were plated onto uncoated tissue culture plates or onto bacterial culture plates coated with fibronectin, vitronectin or collagen, and allowed to attach in the presence of serum. The attachment was equal on all of these surfaces. The cells were then transfected with 10 μg of Bit1 expression plasmid; where indicated, cells were treated with a control IgG of unrelated specificity or monoclonal anti-human α5 antibody (Chemicon), both at 10 μg/ml. Cell death was measured by trypan blue staining 48 hours after the transfection.
# [2] = tested on: Bit1-induced apoptosis in 293T cells; assay: Caspase inhibitors and anti-apoptotic proteins against Bit1; assay type: cell-based, human; settings: cytosolic Bit1
# Excerpt: (§1) 293T cells were also co-transfected with Bit1 or AES and the caspase inhibitor proteins crmA and XIAP.
# [3] = tested on: AES-induced apoptosis in 293T cells; assay: Caspase inhibitors and anti-apoptotic proteins against AES; assay type: cell-based, human
# Excerpt: as §1
# [4] = tested on: Bit1-induced apoptosis in HEK 293 cells; assay: Co-transfection of Bit1 with anti-apoptotic proteins; assay type: cell-based, human; settings: HEK 293 cells co-transfected with Bit1
# Method: Co-transfections were performed with cells plated on non-coated dishes transfected with 5 μg Bit1 plasmid alone or together with 10 μg dominant negative (DN) R-Ras, or activated H-Ras plasmid (Zou et al., Proc. Natl. Acad. Sci. USA 96: 13813-13818 (1999)). […] Expression of the transfected proteins was confirmed by immunoblotting. Apoptosis was assayed as described above.
# CHO cells = assay: Deletion analysis, cell death by trypan blue exclusion; assay type: cell-based, Chinese hamster; settings: 10 μg construct, trypan blue exclusion 48 hours after transfection
# Method: The amino-terminal portion of Bit1 (residues 16-40) is hydrophobic and can serve as a transmembrane domain or signal peptide sequence. When the hydrophobicity of this portion was reduced by substitution of glycine 22 and glycine 38 by serine, Bit1 apoptotic activity was reduced.
# Deletion analysis was performed as follows. The indicated deletion mutants were cloned into vector pEGFP-C1, and 10 μg of each plasmid construct transfected into CHO cells. Cell death was measured by trypan blue exclusion 48 hours after transfection.
# To delineate the pro-apoptotic domain of AES, a series of AES deletion mutants was prepared as amino-terminal fusions with GFP in vector pEGFP-C1. Various AES deletion constructs (10 μg) were transfected into CHO cells, and cell death measured by trypan blue exclusion 48 hours after transfection.
# Bit1 in HeLa cells = assay: Localization of C-terminally tagged Bit1 in cells induced to undergo apoptosis; assay type: cell-based; settings: 0.5 μM staurosporin
# Excerpt: Colocalization of Bit1 with an endoplasmic reticulum or golgi marker was not observed.
# [5] = tested on: Bit1-AES complex in HeLa cells; assay: Co-immunoprecipitation of Bit1-AES complex, cells plated on fibronectin or collagen; assay type: cell-based; settings: HeLa cells plated on fibronectin versus collagen, quantification of gel bands, 24 h after transfection
# Method: In these experiments, HeLa cells were plated on fibronectin or collagen before transfection with pCMV-Myc-Bit1 (3 μg) and pCMV-flag-AES (3 μg) plasmids. Cell lysates were harvested 24 h after transfection and immunoprecipitated with anti-flag and immunoblotted with anti-myc. The total amount of DNA used was adjusted to 10 μg with empty vector in each transfection. The expression of the transfected AES in each sample was confirmed by immunoblotting 20 μl of the whole extract with anti-flag as is shown in FIG. 6C, lower boxes in B and C.
# Thus, a low level of Bit1/AES complex correlated with cell survival and a high level is associated with apoptosis.
compound,measurement,setting,value
collagen: type I collagen coated on culture dishes (SIGMA),protection from Bit1-induced apoptosis,[1],could not confer the same protective effect
"Bcl-2: anti-apoptotic protein, expression construct pcDNA3-Bcl-2",effect on apoptosis induced by Bit1,[2],no effect
same,effect on apoptosis induced by AES,[3],partially effective
same,effect on apoptosis induced by Bit1,[4],little or no effect
"AES residues 57-105: AES deletion mutant, amino-terminal fusion with GFP (SEQ ID NO:8) (MQRHYVMYYEMSYGLNIEMHKQAEIVKRLNGICAQVLPYLSQEHQQQVL; also: amino-terminal fusion with GFP; UniProt Q08117 57-105, looked up, fragment)",pro-apoptotic activity of deletion constructs,CHO cells,efficiently induced apoptosis
CN[C@@H]1C[C@H]2O[C@@](C)([C@@H]1OC)n1c3ccccc3c3c4c(c5c6ccccc6n2c5c31)C(=O)NC4 [staurosporin],localization of C-terminally tagged Bit1,Bit1 in HeLa cells,released into the cytoplasm
fibronectin,reduction in Bit1/AES complex on fibronectin,[5],approximately 75%
same,protection from Bit1-induced apoptosis,[1],largely protected
"AES residues 57-88: AES deletion mutant, amino-terminal fusion with GFP (SEQ ID NO:9) (MQRHYVMYYEMSYGLNIEMHKQAEIVKRLNGI; also: amino-terminal fusion with GFP; UniProt Q08117 57-88, looked up, fragment)",pro-apoptotic activity of deletion constructs,CHO cells,efficiently induced apoptosis
COC(=O)C[C@H](NC(=O)[C@H](C)NC(=O)[C@@H](NC(=O)OCc1ccccc1)C(C)C)C(=O)CF [z-VAD-fmk] (Cbz-Val-Ala-Asp(OMe)-CH2F),effect on apoptosis induced by Bit1,[2],ineffective
same,effect on apoptosis induced by AES,[3],ineffective
"AES residues 1-56: AES deletion mutant, amino-terminal fusion with GFP (MMFPQSRHSGSSHLPQQLKFTTSDSCDRIKDEFQLLQAQYHSLKLECDKLASEKSE; cysteine pairing not given here; also: amino-terminal fusion with GFP; UniProt Q08117 1-56, looked up, fragment)",pro-apoptotic activity of deletion constructs,CHO cells,no apoptotic activity
